Reference: patent publication EP0368756A1, “Dibenzocycloheptene derivatives, process for their preparation and their use as medicaments” (ROUSSEL-UCLAF, priority 1988, dated 1990)

Experiments:
[1] = system: couche CA₁ de l'hippocampe; assay: Neuronal protective effect in the hippocampus after stereotaxic quinolinic acid injection; assay type: in vivo; settings: anaesthetised rat; 20 mg/kg intraperitoneal 30 min before quinolinic acid (5 micrograms) into right hippocampus; cresyl violet histology one week later
Protocol: Recherche de l'effet protecteur neuronal dans l'hippocampe.
L'essai a été réalisé chez le rat anesthésié. Une injection stéréotaxique d'acide quinolinique (5 microgrammes) est réalisée dans l'hippocampe droit. Le produit à étudier (ou le véhicule seul pour le lot d'animaux témoins) est administré par voie intrapéritonéale 30 minutes auparavant.
Une semaine plus tard, les cerveaux sont prélevés et coupés en tranches fines. Les tranches sont colorées au crésyl violet et photographiées.
Chez les animaux témoins, l'acide quinolinique détruit la couche CA₁ de l'hippocampe droit tandis que l'hippocampe gauche (contrôle) non injecté, est intacte. L'hippocampe gauche des animaux n'a reçu aucun traitement. Chez les animaux ayant reçu une administration de 20 mg/kg du produit de l'exemple 7, par voie intrapéritonéale, la couche CA₁ de l'hippocampe droit est protégée donc identique à celle de l'hippocampe gauche qui n'a pas reçu d'injection d'acide quinolinique.

[2] = system: convulsions toniques entrainées par le pentétrazol; assay: Anticonvulsant activity against pentetrazol-induced tonic convulsions; assay type: in vivo, souris; settings: sc; mouse; pentetrazol 160 mg/kg s.c. given 1 hour after the product; tonic convulsions noted for 30 minutes; read-out: DA₅₀ ou dose qui diminue de 50 % le nombre de convulsions toniques entrainées par le pentétrazol
Protocol: Activité anticonvulsivante chez la souris.
L'essai est réalisé sur des lots de 10 souris. L'agent convulsivant est le pentétrazol, en solution aqueuse à la dose de 160 mg/kg s.c. sous un volume de 0,5 ml/20 g, administré 1 heure après le produit de l'exemple 7. Les animaux sont isolés et les convulsions toniques sont notées pendant 30 minutes.
La DA₅₀ ou dose qui diminue de 50 % le nombre de convulsions toniques entrainées par le pentétrazol est de 2,3 mg/kg.

`Nc1ccc2c(c1)C1Cc3ccccc3C2N1` (centres unmarked) [exemple 7, 8-amino 10,11-dihydro 5,10-imino 5H-dibenzo[a,d]-cycloheptène] was tested, and the “effet protecteur neuronal dans l'hippocampe” value [1] was “protégée” and the ED50 [2] was 2.3 mg/kg.
